The values that follow come from patent publication US11040035B2, “3-oxo-2,6-diphenyl-2,3-dihydropyridazine-4-carboxamides” (BAYER PHARMA AKTIENGESELLSCHAFT, priority 2016, dated 2021).

Assay [1] concerns the target T1, AHR (Homo sapiens, UniProt P35869).
T1 sequence (P35869 11-848): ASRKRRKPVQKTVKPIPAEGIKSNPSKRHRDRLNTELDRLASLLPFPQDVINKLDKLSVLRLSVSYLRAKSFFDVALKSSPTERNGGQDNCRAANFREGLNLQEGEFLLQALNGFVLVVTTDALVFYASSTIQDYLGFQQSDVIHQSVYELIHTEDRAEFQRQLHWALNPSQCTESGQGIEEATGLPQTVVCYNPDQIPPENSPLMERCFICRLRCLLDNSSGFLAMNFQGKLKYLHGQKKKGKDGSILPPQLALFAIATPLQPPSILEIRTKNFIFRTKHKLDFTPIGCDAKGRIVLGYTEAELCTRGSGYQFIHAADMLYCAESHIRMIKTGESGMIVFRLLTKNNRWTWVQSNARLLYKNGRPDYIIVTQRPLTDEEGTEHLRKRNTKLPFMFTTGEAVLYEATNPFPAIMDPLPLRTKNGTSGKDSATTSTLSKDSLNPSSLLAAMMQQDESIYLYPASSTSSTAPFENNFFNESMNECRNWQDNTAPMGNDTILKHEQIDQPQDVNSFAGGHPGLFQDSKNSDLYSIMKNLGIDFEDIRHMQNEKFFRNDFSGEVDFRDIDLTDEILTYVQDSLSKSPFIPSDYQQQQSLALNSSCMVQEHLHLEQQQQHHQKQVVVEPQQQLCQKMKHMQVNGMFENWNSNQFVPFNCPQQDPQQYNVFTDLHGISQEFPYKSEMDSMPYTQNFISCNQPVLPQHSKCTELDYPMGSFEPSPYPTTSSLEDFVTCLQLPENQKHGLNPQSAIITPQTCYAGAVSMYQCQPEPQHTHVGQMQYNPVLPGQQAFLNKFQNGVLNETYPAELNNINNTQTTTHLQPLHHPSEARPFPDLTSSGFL
Briefly: In vitro assay 2: agonism in human cell line (transactivation assay).

In assay [2] the target is T1, AHR. Briefly: In vitro assay 1: antagonism in human cell line (transactivation assay, kynurenic acid prestimulated). The conditions noted are these: Assay 1: AHR-luc Hum Antagonism IC50 [M], 150 μM kynurenic acid, 20 hours, firefly luciferase.
Setting [3] is: Assay 2: AHR-luc Hum Agonism IC50 [M], no kynurenic acid, 20 hours, firefly luciferase.
Setting [4] is: read-out: Assay 2: AHR-luc Hum Agonism IC50, no kynurenic acid, 20 hours, firefly luciferase.

SMILES strings stand for the structures. Bounds are passed on as bounds.

For `O=C(NCC(O)C(F)(F)F)c1cc(-c2ccc(Cl)cc2)nn(-c2ccccc2)c1=O` (single isomer, unassigned) [Example 77, 6-(4-chlorophenyl)-3-oxo-2-phenyl-N-(3,3,3-trifluoro-2-hydroxypropyl)-2,3-dihydropyridazine-4-carboxamide], the results for the IC50 in assay [1] (setting [3]) and in assay [2] were greater than 2e-05 M and 7.28e-08 M, respectively.

As to `O=C(NCC(O)C(F)F)c1cc(-c2ccc(Cl)cc2)nn(-c2cccc(F)c2)c1=O` (racemic) [Example 221, 6-(4-Chlorophenyl)-N-[(2RS)-3,3-difluoro-2-hydroxypropyl]-2-(3-fluorophenyl)-3-oxo-2,3-dihydropyridazine-4-carboxamide], the IC50 (usually the concentration needed to halve the response being measured) in assay [1] (setting [3]) is greater than 2e-05 M; in assay [2], 7.64e-08 M.

As to `O=C(NCC(O)C(F)F)c1cc(-c2ccc(C(F)(F)F)cc2)nn(-c2cccc(F)c2)c1=O` (racemic) [Example 261, N-[(2RS)-3,3-Difluoro-2-hydroxypropyl]-2-(3-fluorophenyl)-3-oxo-6-[4-(trifluoromethyl)phenyl]-2,3-dihydropyridazine-4-carboxamide], the results for the IC50 in assay [1] (setting [3]) and in assay [2] were greater than 2e-05 M and 2.26e-08 M, respectively.

For the molecule `O=C(NCC(O)C(F)(F)F)c1cc(-c2ccc(C(F)(F)F)cc2)nn(-c2cccc(F)c2)c1=O` (single isomer, unassigned; (-)) [Example 243], the IC50 in assay [1] (setting [3]) was greater than 2e-05 M; in assay [2], 3.13e-08 M.

For `COc1ccc(-c2cc(C(=O)N[C@@H]3CCCC[C@@H]3O)c(=O)n(-c3cccc(F)c3)n2)cc1` (relative stereo) [Example 106, 2-(3-Fluorophenyl)-N-(cis-2-hydroxycyclohexyl)-6-(4-methoxyphenyl)-3-oxo-2,3-dihydropyridazine-4-carboxamide], the values for the IC50 in assay [1] (setting [3]) and in assay [2] were greater than 2e-05 M and 1.98e-08 M, respectively.

For `O=C(NCC(O)C(F)F)c1cc(-c2ccc(Cl)cc2)nn(-c2cccc(F)c2)c1=O` (single isomer, unassigned; (+)) [Example 223, (+)-6-(4-Chlorophenyl)-N-(3,3-difluoro-2-hydroxypropyl)-2-(3-fluorophenyl)-3-oxo-2,3-dihydropyridazine-4-carboxamide], the half-maximal inhibitory concentration (IC50) is greater than 2e-05 M in assay [1] (setting [4]) and 1.28e-07 M in assay [2].

For the molecule `N#Cc1cccc(-n2nc(-c3ccc(Cl)cc3)cc(C(=O)NCC(O)C(F)(F)F)c2=O)c1` (single isomer, unassigned) [Example 364, 6-(4-chlorophenyl)-2-(3-cyanophenyl)-3-oxo-N-(3,3,3-trifluoro-2-hydroxypropyl)-2,3-dihydropyridazine-4-carboxamide], the IC50 is greater than 2e-05 M in assay [1] (setting [4]) and 5.72e-07 M in assay [2].

Turning to `O=C(N[C@@H]1CCCC(F)(F)[C@H]1O)c1cc(-c2ccc(Cl)cc2)nn(-c2cccc(F)c2)c1=O` (single isomer, unassigned) [Example 276, 6-(4-Chlorophenyl)-N-[(trans)-3,3-difluoro-2-hydroxycyclohexyl]-2-(3-fluorophenyl)-3-oxo-2,3-dihydropyridazine-4-carboxamide], the figures for the IC50 in assay [1] (setting [4]) and in assay [2] were greater than 2e-05 M and 1.45e-07 M, respectively.

As to `CN(C)CC(O)CNC(=O)c1cc(-c2ccc(Cl)cc2)nn(-c2cccc(F)c2)c1=O` (racemic) [Example 235, 6-(4-Chlorophenyl)-N-[(2RS)-3-(dimethylamino)-2-hydroxypropyl]-2-(3-fluorophenyl)-3-oxo-2,3-dihydropyridazine-4-carboxamide], the IC50 in assay [1] (setting [3]) is greater than 2e-05 M; in assay [2], 3e-06 M.

`C[C@H](O)[C@H](C)NC(=O)c1cc(-c2ccc(OC(F)F)cc2)nn(-c2cccc(F)c2)c1=O` (relative stereo) [Example 143, rel-6-[4-(Difluoromethoxy)phenyl]-2-(3-fluorophenyl)-N-[(2S,3S)-3-hydroxybutan-2-yl]-3-oxo-2,3-dihydropyridazine-4-carboxamide]: the IC50 in assay [1] (setting [3]) was greater than 2e-05 M; in assay [2], 8.07e-08 M.

On to `Cc1ccc(-c2cc(C(=O)NCC(O)C(C)C)c(=O)n(-c3cc(F)cc(F)c3)n2)cc1` (stereo not drawn) [Example 56, 2-(3,5-Difluorophenyl)-N-(2-hydroxy-3-methylbutyl)-6-(4-methylphenyl)-3-oxo-2,3-dihydropyridazine-4-carboxamide], for which the IC50 was greater than 2e-05 M in assay [1] (setting [3]) and 4e-08 M in assay [2].

As to `CC(NC(=O)c1cc(-c2ccc(Cl)cc2)nn(-c2cccc(F)c2)c1=O)C(O)C(F)(F)F` (racemic) [Example 216, 6-(4-Chlorophenyl)-2-(3-fluorophenyl)-3-oxo-N-[(2RS,3RS)-4,4,4-trifluoro-3-hydroxybutan-2-yl]-2,3-dihydropyridazine-4-carboxamide and 6-(4-Chlorophenyl)-2-(3-fluorophenyl)-3-oxo-N-[(2RS,3SR)-4,4,4-trifluoro-3-hydroxybutan-2-yl]-2,3-dihydropyridazine-4-carboxamide], the IC50 is greater than 2e-05 M in assay [1] (setting [3]) and 1.16e-07 M in assay [2].

Regarding `Cc1ccc(-c2cc(C(=O)NCC(O)C(F)(F)F)c(=O)n(-c3cccc(F)c3)n2)cc1` (stereo not drawn) [Example 4, 2-(3-Fluorophenyl)-6-(4-methylphenyl)-3-oxo-N-(3,3,3-trifluoro-2-hydroxypropyl)-2,3-dihydropyridazine-4-carboxamide], the IC50 in assay [1] (setting [3]) was greater than 2e-05 M; in assay [2] it was 2.92e-08 M.

In the case of `CC(O)C(NC(=O)c1cc(-c2ccc(C(F)(F)F)cc2)nn(-c2cccc(F)c2)c1=O)C(F)(F)F` (single isomer, unassigned) [Example 350, 2-(3-fluorophenyl)-3-oxo-N-(1,1,1-trifluoro-3-hydroxybutan-2-yl)-6-[4-(trifluoromethyl)phenyl]-2,3-dihydropyridazine-4-carboxamide], the IC50 was greater than 2e-05 M in assay [1] (setting [4]) and 2.08e-07 M in assay [2].

`CC(O)C(C)NC(=O)c1cc(-c2ccc(OC(F)(F)F)cc2)nn(-c2cccc(F)c2)c1=O` (stereo not drawn) [Example 179, 2-(3-Fluorophenyl)-N-(3-hydroxybutan-2-yl)-3-oxo-6-[4-(trifluoromethoxy)phenyl]-2,3-dihydropyridazine-4-carboxamide]: the IC50 in assay [1] (setting [3]) is greater than 2e-05 M; in assay [2] it was 7.36e-08 M.

With `CC(C)C(O)CNC(=O)c1cc(-c2ccc(Cl)cc2)nn(-c2cccc(Cl)c2)c1=O` (single isomer, unassigned) [Example 68, 2-(3-Chlorophenyl)-6-(4-chlorophenyl)-N-(2-hydroxy-3-methylbutyl)-3-oxo-2,3-dihydropyridazine-4-carboxamide], the values for the IC50 in assay [1] (setting [3]) and in assay [2] were greater than 2e-05 M and 3.7e-07 M, respectively.

Regarding `COc1ccc(-c2cc(C(=O)NCC(O)C(F)(F)F)c(=O)n(-c3cccc(F)c3)n2)cc1` (stereo not drawn) [Example 126, 2-(3-Fluorophenyl)-6-(4-methoxyphenyl)-3-oxo-N-(3,3,3-trifluoro-2-hydroxypropyl)-2,3-dihydropyridazine-4-carboxamide], the IC50 is greater than 2e-05 M in assay [1] (setting [3]) and 5.13e-08 M in assay [2].

With `O=C(NC(CO)Cc1cccnc1)c1cc(-c2ccc(Cl)cc2)nn(-c2cccc(F)c2)c1=O` (racemic) [Example 338, 6-(4-chlorophenyl)-2-(3-fluorophenyl)-N-[(2RS)-1-hydroxy-3-(pyridin-3-yl)propan-2-yl]-3-oxo-2,3-dihydropyridazine-4-carboxamide], the IC50 in assay [1] (setting [3]) was greater than 2e-05 M; in assay [2] it was 7.32e-08 M.
